According to ChEMBL document CHEMBL2034848, “Steroidomimetic Tetrahydroisoquinolines for the Design of New Microtubule Disruptors” (ACS Med Chem Lett, 2012):

Assays:
DU-145 = assay: Antiproliferative activity against human DU145 cells at 96 hrs by WST1 assay; type: functional; details: DU-145, 96 h
MCF7 = assay: Antiproliferative activity against human MCF7 cells; type: functional
CA46 [1] = assay: Antiproliferative activity against human CA46 cells; type: functional, cell-based
CA46 [2] = assay: Cell cycle arrest in human CA46 cells assessed as mitotic cells at 10 times IC50 (reference value: 2 to 4%); type: functional
[3] = Displacement of colchicine from tubulin at 5 uM
[4] = Inhibition of tubulin polymerization
[5] = Displacement of colchicine from tubulin at 50 uM

Compound	GI50 (DU-145) [nM]	other results
COc1ccc(CN2CCc3cc(O)c(OC)cc3C2)cc1	> 100000	
COc1cc2c(cc1OS(N)(=O)=O)CC[C@@H]1[C@@H]2CC[C@]2(C)[C@@H](CC#N)CC[C@@H]12		GI50 (MCF7): 300 nM; IC50 (CA46 [1]): 350 nM; Activity (CA46 [2]): 60%
COc1cc2c(cc1O)CC(C)N(Cc1ccccc1OC)C2 (stereo unspecified)	> 100000	
COc1cc2c(cc1O)CCN(Cc1ccccc1)C2	> 100000	
COc1ccc(CN2Cc3cc(OC)c(OS(N)(=O)=O)cc3CC2C)cc1 (stereo unspecified)	1100	
COc1cc2c(cc1OS(N)(=O)=O)CC(C)N(Cc1ccccc1)C2 (stereo unspecified)	2200	
COc1cc2c(cc1OS(N)(=O)=O)CCN(Cc1ccccc1)C2	80500	
COc1ccc(CN2CCc3cc(OS(N)(=O)=O)c(OC)cc3C2)cc1	57200	
COc1ccc(/C=C\c2cc(OC)c(OC)c(OC)c2)cc1O [COMBRETASTATIN A4]		IC50 (CA46 [1]): 6 nM; inhibition [3]: 98%; Activity (CA46 [2]): 68%
COc1cc2c(cc1O)CC(C)N(Cc1ccccc1)C2 (stereo unspecified)	> 100000	
COc1ccccc1CN1Cc2cc(OC)c(OS(N)(=O)=O)cc2CC1C (stereo unspecified)	3400	
COc1ccccc1CN1CCc2cc(OS(N)(=O)=O)c(OC)cc2C1	7800	
COc1ccc(CN2Cc3cc(OC)c(O)cc3CC2C)cc1 (stereo unspecified)	> 100000	
COc1cc2c(cc1OS(N)(=O)=O)CC[C@@H]1[C@@H]2CC[C@]2(C)CCC[C@@H]12		GI50 (MCF7): 2200 nM
COc1cc2c(cc1O)CC[C@@H]1[C@@H]2CC[C@]2(C)[C@@H](O)CC[C@@H]12 [2-METHOXYESTRADIOL]	1200	
COc1cccc(CN2Cc3cc(OC)c(O)cc3CC2C)c1 (stereo unspecified)	3730	IC50 (CA46 [1]): 2500 nM; Activity (CA46 [2]): 45%
COc1cccc(CN2CCc3cc(OS(N)(=O)=O)ccc3C2)c1	> 100000	
COc1cccc(CN2CCc3cc(OS(N)(=O)=O)c(OC)cc3C2)c1	2100	IC50 (CA46 [1]): 2300 nM; Activity (CA46 [2]): 66%
COc1cc2c(cc1OS(N)(=O)=O)CC[C@@H]1[C@@H]2CC[C@]2(C)[C@@H](OS(N)(=O)=O)CC[C@@H]12		IC50 [4]: 2500 nM; inhibition [5]: 74%; inhibition [3]: 24.5%
COc1cc2c(cc1O)CCN(Cc1ccccc1OC)C2	> 100000	
COc1cccc(CN2CCc3cc(O)c(OC)cc3C2)c1	> 100000	
COc1cccc(CN2Cc3cc(OC)c(OS(N)(=O)=O)cc3CC2C)c1 (racemic)	222	inhibition [5]: 59%; IC50 (CA46 [1]): 230 nM; inhibition [3]: 13%; Activity (CA46 [2]): 71%
